From DBAASP
Values after ≈ are worked out from the molar mass of the structure shown.

Key:
Test in all cases: ≥ marks a high value that may be exact or a test limit, other limits are often not marked, values filed in µg/mL are converted to µM
[1] = test system: Escherichia coli ATCC 25922
[2] = test system: Klebsiella pneumoniae ATCC 700603
[3] = test system: Pseudomonas aeruginosa ATCC 9027
[4] = test system: Bacillus subtilis ATCC 23857
[5] = test system: Staphylococcus aureus ATCC 25923
[6] = test system: Staphylococcus aureus ATCC 6538
[7] = test system: Candida albicans ATCC 90028
Acinetobacter baumannii = test system: Acinetobacter baumannii
Staphylococcus aureus = test system: Staphylococcus aureus
[8] = test system: Candida albicans ATCC 2002

Row | SMILES | MIC [1] [µM] | MIC [3] [µM] | MIC [6] [µM] | other results
1 | CC[C@H](C)[C@H](NC(=O)[C@H](CCCCN)NC(=O)[C@H](CCCCN)NC(=O)[C@H](C)NC(=O)[C@@H](NC(=O)[C@H](C)NC(=O)[C@H](CC(C)C)NC(=O)[C@H](CC(C)C)NC(=O)[C@H](C)NC(=O)[C@H](CCCCN)NC(=O)[C@H](CC(C)C)NC(=O)[C@H](CC(N)=O)NC(=O)[C@H](C)N)C(C)C)C(=O)N[C@@H](CC(C)C)C(N)=O [ANLKALLAVAKKIL] | 4 (≈ 5.86 µg/mL) | 16 (≈ 23.4 µg/mL) |  | MIC [2]: 16 µM (≈ 23.4 µg/mL); MIC [4]: 4 µM (≈ 5.86 µg/mL); MIC [5]: 32 µM (≈ 46.9 µg/mL)
2 | CC[C@H](C)[C@H](NC(=O)CNC(=O)[C@@H](N)CS)C(=O)N[C@H](C(=O)N[C@@H](C)C(=O)NCC(=O)N[C@H](C(=O)N[C@H](C(=O)N[C@H](C(=O)N[C@@H](CCCCN)C(=O)N[C@H](C(=O)N[C@@H](CCCCN)C(=O)N[C@@H](CCCCN)C(=O)N[C@@H](CS)C(N)=O)[C@@H](C)CC)[C@@H](C)CC)[C@@H](C)CC)[C@@H](C)CC)[C@@H](C)CC [CGIIAGIIIKIKKC] | > 128 |  |  | MIC [4]: ≥ 32 µM
3 | CC(C)C[C@H](NC(=O)[C@H](C)NC(=O)[C@H](CC(C)C)NC(=O)[C@H](CCCCN)NC(=O)[C@H](C)NC(=O)[C@H](CC(C)C)NC(=O)[C@H](CCCCN)NC(=O)[C@H](CCCCN)NC(=O)[C@H](CC(C)C)NC(=O)[C@H](CCCCN)NC(=O)[C@H](CCCCN)NC(=O)[C@H](C)NC(=O)[C@H](CC(C)C)NC(=O)[C@H](CCCCN)NC(=O)[C@H](CCCCN)NC(=O)[C@H](C)NC(=O)[C@@H](N)Cc1ccccc1)C(=O)N[C@@H](C)C(=O)N[C@@H](CCCCN)C(N)=O [FAKKLAKKLKKLAKLALAK] |  | 4.74 (≈ 10 µg/mL) | 4.74 (≈ 10 µg/mL) | 
4 | CC(C)C[C@H](NC(=O)[C@H](C)NC(=O)[C@H](CC(C)C)NC(=O)[C@H](C)NC(=O)[C@H](CCCCN)NC(=O)[C@H](CCCCN)NC(=O)[C@H](C)NC(=O)[C@H](CC(C)C)NC(=O)[C@H](CCCCN)NC(=O)[C@H](C)NC(=O)[C@H](CC(C)C)NC(=O)[C@H](CCCCN)NC(=O)[C@H](CCCCN)NC(=O)[C@H](C)NC(=O)[C@@H](N)Cc1ccccc1)C(N)=O [FAKKLAKLAKKALAL] |  | 15.5 (≈ 25 µg/mL) | 62 (≈ 99.9 µg/mL) | 
5 | CC[C@H](C)[C@H](NC(=O)[C@H](CCCCN)NC(=O)[C@H](CCCCN)NC(=O)[C@H](C)NC(=O)[C@H](CC(C)C)NC(=O)[C@H](CCCCN)NC(=O)[C@H](C)NC(=O)[C@H](CC(C)C)NC(=O)[C@H](CC(C)C)NC(=O)[C@H](CCCCN)NC(=O)[C@H](C)NC(=O)[C@@H](N)Cc1ccccc1)C(=O)N[C@@H](CC(C)C)C(N)=O [FAKLLAKLAKKIL] |  | 68.6 (≈ 99.9 µg/mL) | 6.86 (≈ 9.99 µg/mL) | 
6 | CC(C)C[C@H](NC(=O)[C@H](C)NC(=O)[C@H](CCCCN)NC(=O)[C@H](CCCCN)NC(=O)[C@H](C)NC(=O)[C@H](CC(C)C)NC(=O)[C@H](CCCCN)NC(=O)[C@H](CCCCN)NC(=O)[C@H](CC(C)C)NC(=O)[C@H](CCCCN)NC(=O)[C@H](CCCCN)NC(=O)[C@H](C)NC(=O)[C@H](CC(C)C)NC(=O)[C@H](CCCCN)NC(=O)[C@H](CCCCN)NC(=O)[C@H](CC(C)C)NC(=O)[C@H](C)NC(=O)[C@H](CCCCN)NC(=O)[C@H](CC(C)C)NC(=O)[C@H](C)NC(=O)[C@H](CC(C)C)NC(=O)[C@H](C)NC(=O)[C@@H](N)Cc1ccccc1)C(N)=O [FALALKALKKLAKKLKKLAKKAL] |  | 1.97 (≈ 5 µg/mL) | 3.94 (≈ 10 µg/mL) | 
7 | CC[C@H](C)[C@H](NC(=O)CN)C(=O)N[C@H](C(=O)N[C@@H](CCCCN)C(=O)NCC(=O)N[C@H](C(=O)N[C@H](C(=O)N[C@@H](CCCCN)C(=O)N[C@H](C(=O)N[C@H](C(=O)N[C@@H](CCCCN)C(=O)N[C@@H](C)C(N)=O)[C@@H](C)CC)[C@@H](C)CC)[C@@H](C)CC)[C@@H](C)CC)[C@@H](C)CC [GIIKGIIKIIKA] | 128 (≈ 162 µg/mL) |  |  | MIC [4]: 4 µM (≈ 5.06 µg/mL)
8 | CC[C@H](C)[C@H](NC(=O)[C@H](CCCCN)NC(=O)[C@H](Cc1ccccc1)NC(=O)[C@H](C)NC(=O)[C@H](CCCCN)NC(=O)CNC(=O)[C@H](CC(C)C)NC(=O)[C@H](CC(C)C)NC(=O)[C@H](CO)NC(=O)CNC(=O)[C@H](CC(C)C)NC(=O)CN)C(=O)NCC(=O)N[C@@H](CC(C)C)C(=O)N[C@@H](CCCCN)C(=O)N[C@H](C(=O)N[C@H](C(=O)NCC(=O)N[C@@H](CCCCN)C(=O)N[C@@H](CCSC)C(=O)N[C@@H](CCSC)C(=O)NCC(=O)NCC(=O)N[C@@H](C)C(=O)N1CCC[C@H]1C(=O)N[C@@H](CCCNC(=N)N)C(=O)N[C@@H](CCC(=O)O)C(=O)N[C@@H](CCC(N)=O)C(=O)O)C(C)C)[C@@H](C)O [GLGSLLGKAFKIGLKTVGKMMGGAPREQ] | 5 (≈ 14.2 µg/mL) |  |  | MIC [7]: 25 µM (≈ 71.1 µg/mL); MIC (Acinetobacter baumannii): 5.66 µM (≈ 16.1 µg/mL); MIC (Staphylococcus aureus): 5.66 µM (≈ 16.1 µg/mL); MIC [5]: 5 µM (≈ 14.2 µg/mL)
9 | CC[C@H](C)[C@H](NC(=O)[C@@H](NC(=O)[C@H](CCCCN)NC(=O)[C@H](CCCCN)NC(=O)[C@H](CC(C)C)NC(=O)CN)C(C)C)C(=O)N[C@@H](CCCCN)C(=O)N[C@@H](CC(C)C)C(=O)N[C@@H](CC(C)C)C(=O)N[C@@H](CCCN=C(N)N)C(=O)N1CCC[C@H]1C(=O)N[C@@H](CC(C)C)C(=O)N[C@@H](CC(C)C)C(=O)O [GLKKVIKLLRPLL] | > 64 | 16 (≈ 23.9 µg/mL) |  | MIC [2]: > 64 µM; MIC (Acinetobacter baumannii): ≥ 32 µM; MIC [5]: 32 µM (≈ 47.7 µg/mL)
10 | CC[C@H](C)[C@H](NC(=O)[C@@H](NC(=O)[C@@H]1CCCN1C(=O)[C@@H](NC(=O)[C@@H]1CCCN1C(=O)[C@H](CCCCN)NC(=O)[C@H](CCCCN)NC(=O)[C@H](CO)NC(=O)CN)C(C)C)[C@@H](C)CC)C(=O)N[C@@H](Cc1ccc(O)cc1)C(=O)N[C@H]1CSSC[C@@H](C(=O)N[C@@H](CCC(N)=O)C(=O)N[C@@H](CCCN=C(N)N)C(=O)N[C@@H](CCSC)C(=O)O)NC(=O)[C@H](CCCCN)NC(=O)[C@H](C)NC(=O)[C@H]([C@@H](C)O)NC(=O)[C@H](CCCN=C(N)N)NC(=O)[C@H](CCCN=C(N)N)NC(=O)[C@H](CC(N)=O)NC1=O [GSKKPVPIIYCNRRTAKCQRM] | 6.53 (≈ 16 µg/mL) |  |  | MIC [2]: 6.53 µM (≈ 16 µg/mL)
11 | CC(C)C[C@H](NC(=O)CNC(=O)[C@@H](NC(=O)[C@@H]1CCCN1C(=O)[C@H](CC(C)C)NC(=O)CNC(=O)[C@H](CC(N)=O)NC(=O)[C@H](CC(N)=O)NC(=O)[C@H](Cc1ccccc1)NC(=O)[C@@H](NC(=O)[C@H](CCCN=C(N)N)NC(=O)[C@H](CS)NC(=O)[C@H](CCCN=C(N)N)NC(=O)[C@H](Cc1cnc[nH]1)NC(=O)[C@H](CCCCN)NC(=O)[C@H](CCCCN)NC(=O)[C@H](CCCN=C(N)N)NC(=O)[C@@H](N)CCCCN)C(C)C)[C@@H](C)O)C(=O)N[C@@H](Cc1ccc(O)cc1)C(=O)N[C@@H](CCCN=C(N)N)C(=O)N[C@@H](Cc1c[nH]c2ccccc12)C(=O)N[C@@H](CS)C(N)=O [KRKKHRCRVFNNGLPTGLYRWC] |  |  | 4.1 (≈ 11.2 µg/mL) | 
12 | CC[C@H](C)[C@H](NC(=O)[C@@H](NC(=O)[C@@H](NC(=O)[C@@H]1CCCN1C(=O)[C@H](Cc1c[nH]c2ccccc12)NC(=O)[C@H](Cc1ccccc1)NC(=O)[C@H](CCCN=C(N)N)NC(=O)[C@H](CCCCN)NC(=O)[C@@H](NC(=O)[C@@H](N)CCCN=C(N)N)[C@@H](C)CC)C(C)C)C(C)C)C(=O)N[C@@H](CCCN=C(N)N)C(=O)N[C@H](C(=O)N[C@H](C(=O)N[C@H](C(=O)N[C@@H](C)C(=O)NCC(=O)N[C@@H](Cc1ccc(O)cc1)C(=O)N[C@@H](CC(N)=O)C(=O)O)C(C)C)C(C)C)[C@@H](C)O [RIKRFWPVVIRTVVAGYN] |  |  |  | MIC [8]: ≥ 69 µM
